Results: US10744104B2, “Neprilysin inhibitors” (THERAVANCE BIOPHARMA R&D IP, LLC, priority 2011, dated 2020)

Experiments:
[1] = target: T1, NEP (Homo sapiens (Human), UniProt P08473); conditions: change of carboxylic acid chain length versus succinic acid compound 21a; cited from earlier work
[2] = target: T1, NEP; test: Assay 1: in vitro enzyme inhibition assay at human NEP (fluorogenic peptide substrate); assay type: biochemical; conditions: for pKi: comparative examples, exact values
Method: The assays were performed in 384-well white opaque plates at 37° C. using the fluorogenic peptide substrates at a concentration of 10 μM in Assay Buffer (NEP: 50 mM HEPES, pH 7.5, 100 mM NaCl, 0.01% polyethylene glycol sorbitan monolaurate (Tween-20), 10 μM ZnSO4; ACE: 50 mM HEPES, pH 7.5, 100 mM NaCl, 0.01% Tween-20, 1 μM ZnSO4).
Test compounds were assayed over the range of concentrations from 10 μM to 20 pM. Test compounds were added to the enzymes and incubated for 30 minute at 37° C. prior to initiating the reaction by the addition of substrate. Reactions were terminated after 20 minutes of incubation at 37° C. by the addition of glacial acetic acid to a final concentration of 3.6% (v/v).
Inhibition constants were obtained by nonlinear regression of the data using the equation (GraphPad Software, Inc., San Diego, Calif.): v=v0/[1+(I/K′)] where v is the reaction rate, v0 is the uninhibited reaction rate, I is the inhibitor concentration and K′ is the apparent inhibition constant.

| SMILES | decrease in activity relative to 21a [1] [fold] | pKi [2] | other results |
| --- | --- | --- | --- |
| C[C@H](C[C@@H](Cc1ccc(-c2ccccc2)cc1)NC(=O)CCCC(=O)O)C(=O)O [Example 21e] | 18 |  |  |
| O=C(N[C@H](Cc1ccc(-c2cccc(Cl)c2)cc1)C[C@@H](O)C(=O)O)C(=O)OCCC(F)(F)F [Example 2N, (2R,4R)-5-(3′-Chlorobiphenyl-4-yl)-2-hydroxy-4-[(3,3,3-trifluoropropoxyoxalyl)-amino]pentanoic Acid] |  |  | Ki ([2]; reported as ranges): ≤ 1 nM |
| O=C(O)CCCC(=O)N[C@H](Cc1ccc(-c2ccccc2)cc1)CC(O)C(=O)O (stereo partly drawn) [Comparative Compound E, (R)-5-Biphenyl-4-yl-4-(4-carboxybutrylamino)-2-hydroxypentanoic Acid] |  | 7.3 |  |
| O=C(O)CCCC(=O)N[C@H](Cc1ccc(-c2ccccc2)cc1)C[C@@H](CO)C(=O)O [Comparative Compound H, (2S,4S)-5-Biphenyl-4-yl-4-(4-carboxy-butyrylamino)-2-hydroxmethylpentanoic Acid] |  | 8.6 |  |
| C[C@H](CC(Cc1ccc(-c2ccccc2)cc1)NC(=O)CC(=O)O)C(=O)O (stereo partly drawn) [Example 21g] | 18 |  |  |
| C[C@H](C[C@@H](Cc1ccc(-c2ccccc2)cc1)NC(=O)CCCCC(=O)O)C(=O)O [Example 21f] | 65 |  |  |
